Assay results published in patent US8304446B2, “Compounds” (Glaxo Group Limited, priority 2009, dated 2012).
Structures can show the parent of a compound that is named as a salt.

How the values were obtained:
[1] = tested on: CD4+ CCR4+ T cells; assay: Chemokine stimulated increases in cellular F-actin content; format: cell-based; details: Homo sapiens, T-cell, 0.5 h; PBMC from normal volunteers; antagonist 30 min at 37° C. before agonist for 15 sec; F-actin content by flow cytometry; read-out: pA2 (converted)
Protocol: Chemokine Stimulated Increases in Cellular F-Actin Content
Blood was taken from normal volunteers who had taken no medication within the previous ten days and mixed with 1/9 of the volume of 3.8% tri-sodium citrate solution. Chemokine-induced increases in the F-actin content of CD4+ CCR4+ T cells were measured by a modification of the method of Pilette et al. (Eur. Respir. J; 23: 876-884, 2004). Peripheral blood mononuclear cells (PBMC) were isolated by dextran sedimentation followed by Percoll density gradient centrifugation. The PBMCs were incubated with FITC-conjugated anti-human CD4 and PE-conjugated anti-CCR4 antibodies or appropriate isotype controls for 15 min. The cell suspensions were then centrifuged at 400 g for 10 min and the pellets resuspended in assay buffer (phenol red-free RPMI 1640 medium containing 10 mM HEPES and 0.1% bovine serum albumin) at 10^7/mL. The resulting cell suspension was incubated with antagonist or vehicle (0.1% DMSO) for 30 min at 37° C. before stimulation with the agonist for 15 sec. The assay was terminated by addition of 3% formaldehyde. The fixed cells were washed twice with PBS (centrifuging at 1000 g for 5 min to recover the cells) and incubated at room temperature with Alexa fluor-647 phalloidin (0.075 U/mL) in the presence of lyso-phosphatidylcholine (93.75 μg/ml) for 20 min to stain F-actin. The cells were washed once more with PBS and the relative F-actin content of the cells was measured flow cytometrically. The mean fluorescence intensity of 1000 CD4^+ CCR4^+ cells per sample was determined and expressed as a fraction of the mean intensity of the CD4^+ CCR4^− cells in that sample.

[2] = biological target: T1, CCR4 (Homo sapiens, UniProt P51679); assay: [35S]-GTPγS SPA binding assay for CCR4 antagonist activity; format: biochemical; details: CCR4 expressing CHO membranes; human MDC at EC80; [35S]-GTPγS competition
T1 construct: expressed in transfected cells; host or cells: CHO cell membranes
T1 sequence (P51679 1-360): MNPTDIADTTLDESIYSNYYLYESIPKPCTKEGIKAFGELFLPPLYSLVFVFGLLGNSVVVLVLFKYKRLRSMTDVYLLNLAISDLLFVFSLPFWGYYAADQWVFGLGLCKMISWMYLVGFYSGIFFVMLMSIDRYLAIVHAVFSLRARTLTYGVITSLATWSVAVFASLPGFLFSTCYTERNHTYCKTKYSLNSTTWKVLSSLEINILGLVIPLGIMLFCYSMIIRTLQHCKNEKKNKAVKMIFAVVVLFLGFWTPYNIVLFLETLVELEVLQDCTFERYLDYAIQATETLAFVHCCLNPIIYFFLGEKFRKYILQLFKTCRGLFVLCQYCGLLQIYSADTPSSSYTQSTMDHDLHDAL
Protocol: [35S]-GTPγS SPA Binding Assays for CCR4 Antagonist Activity
Antagonist potency was determined by a radioligand [35S]-GTPγS competition assay. Briefly, CCR4 expressing CHO membranes were homogenised by passing through a 23G needle. These membranes were then adhered to WGA-coated Leadseeker SPA beads in assay buffer (20 mM HEPES, 10 mM MgCl2, 100 mM NaCl, 0.05% BSA, 40 ug/ml Saponin and pH adjusted to 7.4 using KOH 5M) to generate a 3 μg/well final assay concentration (FAC) membrane and 250 μg/well FAC bead, solution.
The bead/membrane/[35S]-GTPγS/Agonist suspension was dispensed into white Greiner polypropylene 384-well plates (45 μl/well), containing 0.5 μl of compound. […] Plates were then read on a Viewlux instrument and luminescence was then plotted as a percentage of the maximum inhibitional response elicited by an IC100 of a standard antagonist.

SMILES	Kb [1]	IC50 [2]
COc1cccc2c1c(NS(=O)(=O)c1ccc(Cl)s1)nn2Cc1cccc(CNC(=O)CCN)c1 [Example 78, N^1-[(3-{[3-{[(5-Chloro-2-thienyl)sulfonyl]amino}-4-(methyloxy)-1H-indazol-1-yl]methyl}phenyl)methyl]-β-alaninamide trifluoroacetate]	≤ 126 nM	–
COc1cccc2c1c(NS(=O)(=O)c1ccc(Cl)s1)nn2Cc1cccc(CNC(=O)[C@@H](N)CCC(N)=O)c1 [Example 79, N^1-[(3-{[3-{[(5-Chloro-2-thienyl)sulfonyl]amino}-4-(methyloxy)-1H-indazol-1-yl]methyl}phenyl)methyl]-L-glutamamide formate salt]	≤ 126 nM	–
COc1cccc2c1c(NS(=O)(=O)c1ccc(Cl)s1)nn2Cc1cccc(CNC(=O)C[C@H](N)C(=O)O)c1 [Example 80, N^4-[(3-{[3-{[(5-Chloro-2-thienyl)sulfonyl]amino}-4-(methyloxy)-1H-indazol-1-yl]methyl}phenyl)methyl]-L-asparagine trifluoroacetate]	–	3.98 to 15.8 nM
COc1cccc2c1c(NS(=O)(=O)c1ccc(Cl)s1)nn2Cc1cccc(CNC(=O)C2(N)CCC2)c1 [Example 83, 1-Amino-N-[(3-{[3-{[(5-chloro-2-thienyl)sulfonyl]amino}-4-(methyloxy)-1H-indazol-1-yl]methyl}phenyl)methyl]cyclobutanecarboxamide trifluoroacetate]	≤ 126 nM	–
COc1cccc2c1c(NS(=O)(=O)c1ccc(Cl)s1)nn2Cc1cccc(CNC(=O)C2(N)CC2)c1 [Example 84, 1-Amino-N-[(3-{[3-{[(5-chloro-2-thienyl)sulfonyl]amino}-4-(methyloxy)-1H-indazol-1-yl]methyl}phenyl)methyl]cyclopropanecarboxamide trifluoroacetate]	≤ 126 nM	–
CNCC(=O)NCc1cccc(Cn2nc(NS(=O)(=O)c3ccc(Cl)s3)c3c(OC)cccc32)c1 [Example 85, N^1-[(3-{[3-{[(5-Chloro-2-thienyl)sulfonyl]amino}-4-(methyloxy)-1H-indazol-1-yl]methyl}phenyl)methyl]-N^2-methylglycinamide trifluoroacetate]	–	3.98 to 15.8 nM
COc1cccc2c1c(NS(=O)(=O)c1ccc(Cl)s1)nn2Cc1cccc(CNC(=O)CN(C)C)c1 [Example 86, N^1-[(3-{[3-{[(5-Chloro-2-thienyl)sulfonyl]amino}-4-(methyloxy)-1H-indazol-1-yl]methyl}phenyl)methyl]-N^2,N^2-dimethylglycinamide trifluoroacetate]	≤ 126 nM	–
COc1cccc2c1c(NS(=O)(=O)c1ccc(Cl)s1)nn2Cc1cccc(CNC(=O)C2CCCO2)c1 (centres unmarked) [Example 89, N-[(3-{[3-{[(5-Chloro-2-thienyl)sulfonyl]amino}-4-(methyloxy)-1H-indazol-1-yl]methyl}phenyl)methyl]tetrahydro-2-furancarboxamide]	≤ 126 nM	–
COc1cccc2c1c(NS(=O)(=O)c1ccc(Cl)s1)nn2Cc1cccc(CNC(=O)C2COCCN2C)c1 (centres unmarked) [Example 96, N-[(3-{[3-{[(5-Chloro-2-thienyl)sulfonyl]amino}-4-(methyloxy)-1H-indazol-1-yl]methyl}phenyl)methyl]-4-methyl-3-morpholinecarboxamide]	≤ 126 nM	–
COc1cccc2c1c(NS(=O)(=O)c1ccc(Cl)s1)nn2Cc1cccc(CNC(=O)[C@@H](N)CO)c1 [Example 102, N^1-[(3-{[3-{[(5-Chloro-2-thienyl)sulfonyl]amino}-4-(methyloxy)-1H-indazol-1-yl]methyl}phenyl)methyl]-L-serinamide]	–	3.98 to 15.8 nM
COc1ccc(Cn2nc(NS(=O)(=O)c3ccc(Cl)s3)c3c(OC)cccc32)cc1OCCN(C)C [Example 110, 5-Chloro-N-[1-{[3-{[2-(dimethylamino)ethyl]oxy}-4-(methyloxy)phenyl]methyl}-4-(methyloxy)-1H-indazol-3-yl]-2-thiophenesulfonamide]	≤ 126 nM	–
O=C(NCc1cccc(Cn2nc(NS(=O)(=O)c3ccc(Cl)s3)c3c(O)cccc32)c1)[C@H]1COCCN1 [Example 111, (3R)—N-({3-[(3-{[(5-chloro-2-thienyl)sulfonyl]amino}-4-hydroxy-1H-indazol-1-yl)methyl]phenyl}methyl)-3-morpholinecarboxamide formate salt]	≤ 126 nM	–
CNCC(=O)NCc1cccc(Cn2nc(NS(=O)(=O)c3ccc(Cl)s3)c3c(O)cccc32)c1 [Example 112, N^1-({3-[(3-{[(5-chloro-2-thienyl)sulfonyl]amino}-4-hydroxy-1H-indazol-1-yl)methyl]phenyl}methyl)-N^2-methylglycinamide formate salt]	≤ 126 nM	–
CCNC(=O)NCc1cccc(Cn2nc(NS(=O)(=O)c3ccc(Cl)s3)c3c(OC)cccc32)c1 [Example 113, 5-Chloro-N-[1-{[3-({[(ethylamino)carbonyl]amino}methyl)phenyl]methyl}-4-(methyloxy)-1H-indazol-3-yl]-2-thiophenesulfonamide]	≤ 126 nM	–
COc1cccc2c1c(NS(=O)(=O)c1ccc(Cl)s1)nn2Cc1cccc(CNC(=O)[C@@H](N)Cc2c[nH]c3ccccc23)c1 [Example 114, N-[(3-{[3-{[(5-Chloro-2-thienyl)sulfonyl]amino}-4-(methyloxy)-1H-indazol-1-yl]methyl}phenyl)methyl]-L-tryptophanamide]	–	3.98 to 15.8 nM
COc1cccc2c1c(NS(=O)(=O)c1cccs1)nn2Cc1cccc(CNC(C)=O)c1 [Example 116, N-{[3-({4-(Methyloxy)-3-[(2-thienylsulfonyl)amino]-1H-indazol-1-yl}methyl)phenyl]methyl}acetamide]	–	100 to 398 nM
COc1ccc(Cn2nc(NS(=O)(=O)c3ccc(C)s3)c3c(OC)cccc32)cc1OC [Example 118, N-[1-{[3,4-Bis(methyloxy)phenyl]methyl}-4-(methyloxy)-1H-indazol-3-yl]-5-methyl-2-thiophenesulfonamide]	≤ 126 nM	–
COc1cc(F)cc2c1c(NS(=O)(=O)c1ccc(Cl)s1)nn2Cc1cccc(CNC(C)=O)c1 [Example 129, N-[(3-{[3-{[(5-Chloro-2-thienyl)sulfonyl]amino}-6-fluoro-4-(methyloxy)-1H-indazol-1-yl]methyl}phenyl)methyl]acetamide]	≤ 126 nM	–
COc1cccc2c1c(NS(=O)(=O)c1ccc(Cl)s1)nn2Cc1cccc(CNC(=O)[C@@H]2CCCN2)c1 [Example 158, N-[(3-{[3-{[(5-Chloro-2-thienyl)sulfonyl]amino}-4-(methyloxy)-1H-indazol-1-yl]methyl}phenyl)methyl]-L-prolinamide trifluoroacetate]	≤ 126 nM	–
COc1cccc2c1c(NS(=O)(=O)c1ccc(Cl)s1)nn2Cc1cccc(CNC(=O)[C@@H]2CCN2)c1 [Example 159, (2S)—N-[(3-{[3-{[(5-Chloro-2-thienyl)sulfonyl]amino}-4-(methyloxy)-1H-indazol-1-yl]methyl}phenyl)methyl]-2-azetidinecarboxamide trifluoroacetate]	≤ 126 nM	–
COc1cccc2c1c(NS(=O)(=O)c1ccc(C)s1)nn2Cc1cccc(CNC(=O)[C@H]2COCCN2)c1 [Example 160, (3R)—N-({3-[(4-(Methyloxy)-3-{[(5-methyl-2-thienyl)sulfonyl]amino}-1H-indazol-1-yl)methyl]phenyl}methyl)-3-]	≤ 126 nM	–
CCN(CC)C(=O)c1ccc(Cn2nc(NS(=O)(=O)c3ccc(Cl)s3)c3c(OC)cccc32)cc1 [Example 163, 4-{[3-{[(5-Chloro-2-thienyl)sulfonyl]amino}-4-(methyloxy)-1H-indazol-1-yl]methyl}-N,N-diethylbenzamide]	> 1000 nM	–
O=C(NCc1cccc(Cn2nc(NS(=O)(=O)c3ccc(Cl)s3)c3c(O)cccc32)c1)[C@@H]1COCCN1 [Example 166, (3S)—N-({3-[(3-{[(5-Chloro-2-thienyl)sulfonyl]amino}-4-hydroxy-1H-indazol-1-yl)methyl]phenyl}methyl)-3-morpholinecarboxamide formate salt]	≤ 126 nM	–
